Source: patent publication US20230346670A1, “Prebiotic Oral Care Compositions and Methods” (Colgate-Palmolive Company, priority 2020, published 2023)
Marks after values point to notes of the source that are not given here.

Tests used:
Type in all cases: cell-based
[1] = test system: P. intermedia virulence genes; assay: Virulence gene expression in multi-species biofilm (SYBR RT-qPCR); settings: for fold change in DnaJ expression, geometric mean (95% C.I.) / fold change in DnaK expression, geometric mean (95% C.I.) / fold change in ECF expression, geometric mean (95% C.I.) / fold change in GroES expression, geometric mean (95% C.I.) / fold change in HtpG expression, geometric mean (95% C.I.) / fold change in KpsD expression, geometric mean (95% C.I.) / fold change in adpc expression, geometric mean (95% C.I.) / fold change in clpB expression, geometric mean (95% C.I.) / fold change in inpA expression, geometric mean (95% C.I.) / fold change in phg expression, geometric mean (95% C.I.): relative to control = 1
Experimental: (§1) Biofilms are grown vertically on Calcium Deficient Hydroxyapatite (CAD-HA) disks (Hitemco Medical, Old Bethpage, USA) using the Amsterdam Active Adhesion model. Biofilms are allowed to establish during 24 h (37° C., 170 rpm) under microaerophilic conditions (6% O2, 7% CO2, 7% H2, 80% N2). After this 24 h, disks are rinsed 3 times a day for 3 minutes (RT, 250 rpm), for 3 consecutive days, by transferring the lid containing the disks to a new 24-well plate containing 2 mL/well of the appropriate substrate solution. As a negative control, PBS (pH 5.7) without substrate supplementation is used.
(§2) The virulence of the substrate-treated multi-species biofilms are evaluated by analyzing the relative expression of 33 genes that are recognized as being related to some form of virulence and from 4 periodontal pathogens.
(§3) Expression of bacterial virulence genes is analyzed through SYBR RT-qPCR and normalized for bacterial housekeeping gene expression. […] These effects are illustrated in Tables 6a and 6b:
Note, for Table 6d, fold changes in virulence gene expression are determined relatively to the control condition through the 2^^-ΔΔCt method and are shown as the geometric mean (C.I.) (n = 3) of the 2^^-ΔΔCt values. All substrates are dissolved in PBS at a concentration of 1 M (upper part) or 1%(w/v) (lower part). Values between 0 and 1 represent relative downregulation, values >1 represent relative upregulation. […] NADG: N-acetyl-D-glucosamine; C.I.: 95% confidence interval.

[2] = test system: F. nucleatum virulence genes; assay: as above; settings: relative to control = 1, 2^-ΔΔCt, n = 3
Experimental: as §1, §2, §3
Note, for Table 6c, fold changes in virulence gene expression are determined relative to the control condition through the 2^^-ΔΔCt method and are shown as the geometric mean (C.I.) (n = 3) of the 2^^-ΔΔCt values. All substrates are dissolved in PBS at a concentration of 1 M (upper part) or 1%(w/v) (lower part). Values between 0 and 1 represent relative downregulation, values >1 represent relative upregulation. […] NADG: N-acetyl-D-glucosamine; C.I.: 95% confidence interval.

[3] = test system: multi-species biofilms; assay: Organic acid levels in supernatant of multi-species biofilms (ion chromatography); settings: >0 production, <0 consumption, n = 3
Experimental: as §1
Levels of organic acids in the filter sterilized supernatant of the multi-species biofilms are measured using a 761 Compact Ion Chromatograph (Metrhohm, Switzerland) with a Metrosep Organic acids Guard/4.6 guard column. The supernatants from the substrate-treated multi-species biofilms are analyzed to gain more insight into the influence of the substrates on organic acid consumption/production.

[4] = test system: A. actinomycetemcomitans virulence genes; assay: Virulence gene expression in multi-species biofilm (SYBR RT-qPCR)
Experimental: as §1, §2, §3
(§4) Note, for Tables 6a and 6b, that fold changes in virulence gene expression are determined relative to the control condition through the 2^^-ΔΔCt method and are shown as the geometric mean (C.I.) (n = 3) of the 2^^-ΔΔ ^Ct values. All substrates are dissolved in PBS at a concentration of 1 M (upper part) or 1%(w/v) (lower part). Values between 0 and 1 represent relative downregulation, values >1 represent relative upregulation. […] NADG: N-acetyl-D-glucosamine; C.I.: 95% confidence interval.

[5] = test system: P. gingivalis virulence genes; assay: as above; settings: relative to control, 2^-ΔΔCt, n = 3
Experimental: as §1, §2, §3, §4

[6] = lower part of Table 6d, head prints 1 M (lower part 1%(w/v))
[7] = upper part of Table 6d, substrate 1 M, n = 3
[8] = substrate 1 M, listed as D-(+)-raffinose
[9] = lower part of Table 6a, substrate 1%(w/v), relative to control = 1
[10] = substrate 1 M, relative to control = 1, 2^-ΔΔCt, n = 3

## OC[C@H]1O[C@H](OC[C@H]2O[C@H](O[C@]3(CO)O[C@H](CO)[C@@H](O)[C@@H]3O)[C@H](O)[C@@H](O)[C@@H]2O)[C@H](O)[C@@H](O)[C@H]1O [D-raffinose, D-(+)-raffinose]
[1]; [6]
  fold change in DnaJ expression, geometric mean (95% C.I.): 1.56 (0.59-4.12) fold
  fold change in DnaK expression, geometric mean (95% C.I.): 1.76 (0.61-5.06) fold
  fold change in ECF expression, geometric mean (95% C.I.): 0.96 (0.56-1.64) fold
  fold change in GroES expression, geometric mean (95% C.I.): 0.98 (0.24-4.05) fold
  fold change in HtpG expression, geometric mean (95% C.I.): 0.67 (0.43-1.04) fold
  fold change in KpsD expression, geometric mean (95% C.I.): 0.90 (0.58-1.40) fold
  fold change in adpc expression, geometric mean (95% C.I.): 0.85 (0.23-3.13) fold
  fold change in clpB expression, geometric mean (95% C.I.): 1.13 (0.86-1.48) fold
  fold change in inpA expression, geometric mean (95% C.I.): 0.98 (0.64-1.52) fold
  fold change in phg expression, geometric mean (95% C.I.): 0.73 (0.33-1.63) fold
[1]; substrate 1% (w/v)
  impact on P. intermedia virulence gene expression: limited impact
[1]; substrate 1 M
  downregulation of P. intermedia virulence gene expression: 3 fold
[1]; [7]
  fold change in DnaJ expression, geometric mean (95% C.I.): 1.76 (0.92-3.37) fold
  fold change in DnaK expression, geometric mean (95% C.I.): 10.07 (6.81-14.89)^∗ fold
  fold change in ECF expression, geometric mean (95% C.I.): 6.74 (1.96-23.20)^∗ fold
  fold change in GroES expression, geometric mean (95% C.I.): 10.59 (4.96-22.60)^∗ fold
  fold change in HtpG expression, geometric mean (95% C.I.): 1.90 (0.99-3.67)^∗ fold
  fold change in KpsD expression, geometric mean (95% C.I.): 1.78 (0.71-4.45) fold
  fold change in adpc expression, geometric mean (95% C.I.): 1.02 (0.40-2.60) fold
  fold change in clpB expression, geometric mean (95% C.I.): 2.21 (1.53-3.21) fold
  fold change in inpA expression, geometric mean (95% C.I.): 1.39 (0.67-2.90) fold
  fold change in phg expression, geometric mean (95% C.I.): 0.33 (0.21-0.50)^∗ fold
[2]; substrate 1% (w/v)
  fold change in ABC transp. perm. (ABC transporter permease) expression, geometric mean (95% C.I.): 0.17 (0.04-0.65)^∗ fold
  fold change in EF-G expression, geometric mean (95% C.I.): 0.12 (0.04-0.33)^∗ fold
  fold change in but. -coA transf. (butyrate-acetoacetate CoA-transferase) expression, geometric mean (95% C.I.): 0.47 (0.06-3.98) fold
  fold change in hemin receptor expression, geometric mean (95% C.I.): 0.12 (0.09-0.15)^∗ fold
  fold change in hemolysin expression, geometric mean (95% C.I.): 0.51 (0.16-1.62)^∗ fold
  fold change in ompA expression, geometric mean (95% C.I.): 0.70 (0.20-2.44) fold
  fold change in transposase expression, geometric mean (95% C.I.): 0.78 (0.40-1.53) fold
[2]; substrate 1 M
  fold change in ABC transp. perm. (ABC transporter permease) expression, geometric mean (95% C.I.): 41.25 (11.65-146.10)^∗ fold
  fold change in EF-G expression, geometric mean (95% C.I.): 1.41 (0.70-2.83) fold
  fold change in but. -coA transf. (butyrate-acetoacetate CoA-transferase) expression, geometric mean (95% C.I.): 3.95 (0.89-17.60)* fold
  fold change in hemin receptor expression, geometric mean (95% C.I.): 18.04 (7.92-41.14)^∗ fold
  fold change in hemolysin expression, geometric mean (95% C.I.): 2.50 (1.07-5.83)^∗ fold
  fold change in ompA expression, geometric mean (95% C.I.): 1.07 (0.49-2.36) fold
  fold change in transposase expression, geometric mean (95% C.I.): 251.47 (75.27-840.20)^∗ fold
[3]; substrate 1% (w/v)
  acetate level in biofilm supernatant, mean ± SD: 380 ± 23 mg/L
  butyrate level in biofilm supernatant, mean ± SD: 2003 ± 81 mg/L
  formate level in biofilm supernatant, mean ± SD: 3748 ± 197 mg/L
  lactate level in biofilm supernatant, mean ± SD: -125 ± 0 mg/L
  propionate level in biofilm supernatant, mean ± SD: 2033 ± 48 mg/L
[3]; substrate 1 M
  acetate level in biofilm supernatant, mean ± SD: 2640 ± 154^∗ mg/L
  butyrate level in biofilm supernatant, mean ± SD: 154 ± 26^∗ mg/L
  formate level in biofilm supernatant, mean ± SD: 344 ± 25^∗ mg/L
  lactate level in biofilm supernatant, mean ± SD: 971 ± 43^∗ mg/L
  propionate level in biofilm supernatant, mean ± SD: 4178 ± 105^∗ mg/L
[3]; [8]
  acetate level in biofilm supernatant, mean ± SD: 2640 ± 154 mg/L
  butyrate level in biofilm supernatant, mean ± SD: 154 ± 26 mg/L
  lactate level in biofilm supernatant, mean ± SD: 971 ± 43 mg/L
  propionate level in biofilm supernatant, mean ± SD: 4178 ± 105 mg/L
[4]; [9]
  fold change in aae expression, geometric mean (95% C.I.): 1.34 (0.38-4.68) fold
  fold change in apaH expression, geometric mean (95% C.I.): 0.91 (0.48-1.73) fold
  fold change in cdtB expression, geometric mean (95% C.I.): 0.73 (0.16-3.39) fold
  fold change in emaA expression, geometric mean (95% C.I.): 0.59 (0.13-2.77) fold
  fold change in flp expression, geometric mean (95% C.I.): 0.89 (0.40-1.99) fold
  fold change in ltxA expression, geometric mean (95% C.I.): 0.30 (0.12-0.79) fold
  fold change in omp29 expression, geometric mean (95% C.I.): 0.87 (0.26-2.87) fold
  fold change in omp100 expression, geometric mean (95% C.I.): 0.31 (0.09-1.08)^∗ fold
  fold change in orf859 expression, geometric mean (95% C.I.): 1.66 (0.86-3.20) fold
  fold change in pgA expression, geometric mean (95% C.I.): 0.99 (0.38-2.55) fold
  fold change in vapA expression, geometric mean (95% C.I.): 1.14 (0.40-3.20) fold
  fold change in vppA expression, geometric mean (95% C.I.): 1.08 (0.53-2.18) fold
[4]; [10]
  fold change in aae expression, geometric mean (95% C.I.): 0.16 (0.05-0.47)^∗ fold
  fold change in apaH expression, geometric mean (95% C.I.): 0.11 (0.02-0.73)^∗ fold
  fold change in cdtB expression, geometric mean (95% C.I.): 0.07 (0.02-0.25)^∗ fold
  fold change in emaA expression, geometric mean (95% C.I.): 0.09 (0.03-0.29)^∗ fold
  fold change in flp expression, geometric mean (95% C.I.): 0.45 (0.17-1.22) fold
  fold change in ltxA expression, geometric mean (95% C.I.): 0.01 (0.01-0.03)^∗ fold
  fold change in omp29 expression, geometric mean (95% C.I.): 1.37 (0.34-5.47) fold
  fold change in omp100 expression, geometric mean (95% C.I.): 0.09 (0.02-0.43)^∗ fold
  fold change in orf859 expression, geometric mean (95% C.I.): 0.02 (0.01-0.05)^∗ fold
  fold change in pgA expression, geometric mean (95% C.I.): 7.26 (2.09-25.17)^∗ fold
  fold change in vapA expression, geometric mean (95% C.I.): 0.50 (0.13-1.94) fold
  fold change in vppA expression, geometric mean (95% C.I.): 0.05 (0.04-2.42)^∗ fold
[4]; substrate 1 M, relative to control = 1, 2^-ΔΔCt, n = 3, listed as D-(+)-raffinose
  fold change in pgA expression, geometric mean (95% C.I.): 7.3 fold
[5]; substrate 1 % (w/v)
  fold change in fimA expression, geometric mean (95% C.I.): 1.47 (0.92-2.34) fold
  fold change in kgp expression, geometric mean (95% C.I.): 1.77 (0.74-4.21) fold
  fold change in partC expression, geometric mean (95% C.I.): 0.54 (0.26-1.12) fold
  fold change in rgpA expression, geometric mean (95% C.I.): 1.42 (1.12-1.80) fold
[5]; substrate 1 M
  fold change in fimA expression, geometric mean (95% C.I.): 0.03 (0.00-0.16)* fold
  fold change in kgp expression, geometric mean (95% C.I.): <LOD
  fold change in partC expression, geometric mean (95% C.I.): 0.02 (0.00-0.12)^∗ fold
  fold change in rgpA expression, geometric mean (95% C.I.): 0.01 (0.00-0.10)^∗ fold
